Patent US12502369B2, “Methods of cancer treatment” (K-GEN, INC., priority 2015, dated 2025)
Entries after “also recorded” stand apart in the source; their conditions may differ.

Columns and labels:
A549 = assay: Proliferation assay, PKC inhibitor in combination with PKC activators, A549; format: cell-based; settings: for effect on PKC activator-mediated proliferation inhibition: K101A with Go6976 (0.1 or 0.3 μM), GF109203X (0.3 or 1 μM), Enzastaurin (0.3 or 1 μM); for inhibition of K101A anti-proliferative effects: higher concentrations of inhibitor
Description: To assess if activation of different classes of PKC is required for anti-proliferation effect of PKC activators, Sotrastaurin, a PKC inhibitor targeting both conventional and novel classes of PKC, was tested in combination with PKC activators in the proliferation assays. Proliferation assay in lung cancer cell line A549 (FIG. 15) and in pancreatic cell line MiaPaCa-2 (FIG. 16) was performed as described in Example 1. […] Then, K101A or K102 was tested in 8- or 9-point titrations in the presence of DMSO or Sotrastaurin (0.1 μM or 1 μM). […] Thus, PKC activator-mediated anti-proliferation effects are dependent on activation of PKC isoforms from conventional, or novel, or both classes of PKCs.
To assess if PKC activation is required for anti-proliferation effect of PKC activators in cancer cell lines that are sensitive to these activators, a pan-PKC inhibitor Go6983, targeting classes of PKCs (conventional, novel, atypical, and PKCμ), was tested in combination with PKC activators in the proliferation assays. Proliferation assay in lung cancer cell line A549 (FIG. 17) and in pancreatic cell line MiaPaCa-2 (FIG. 18) was performed as described in Example 1. […] Then, K101A or K102 was tested in 8- or 9-point titrations in the presence of DMSO or Go6983 (0.1 μM or 1 μM). […] Thus, PKC activation is required for anti-proliferation effect of PKC activators.
Proliferation assay was performed as described in Example 1. […] Thus, PKC activator-mediated anti-proliferation effects appear mainly dependent on activation of novel PKC isoforms.

[1] = system: PKC isoforms and Erk1/2 in Mino and Namalwa cells; assay: PKC inhibitor effect on K101A-mediated phosphorylation of PKCs and Erk1/2 in Mino and Namalwa cells; format: cell-based; settings: for phosphorylation of PKCδ at Tyr311 induced by PKC inhibitor: inhibitor pre-treatment 30 minutes; for K101A-induced phosphorylation of PKCμ at Ser916 or Ser744/748, PKCδ at Thr505, and Erk: inhibitor pre-treatment 30 minutes (Go6983, Sotrastaurin 1 μM)
Description: Cell lysis, protein quantitation, and Western blot analysis were performed as described above in Example 2 and 4. […] Again, these PKC inhibitor studies indicate the anti-proliferative effects of the PKC activators appear to be positively associated with phosphorylation and activation of novel PKC isoforms and PKCγ, and negatively associated with the phosphorylation of PKCδ at Tyr311.

Namalwa cells = assay: Proliferation assay, PKC inhibitors in combination with PKC activators, Namalwa; format: cell-based; settings: Sotrastaurin 0.3/1 μM, Go6983 0.1/1 μM, Go6976 0.3/1 μM, Enzastaurin at very high concentration of 10 μM
Description: PKC inhibitor studies were performed as described in Example 15. […] Thus, PKC activator-mediated anti-proliferation effects may be dependent on activation of novel PKC isoforms.

[2] = system: PKC isoforms and Erk1/2 in A549 cells; assay: PKC inhibitor effect on PKC activator-mediated phosphorylation of PKCs and Erk1/2, A549; format: cell-based; settings: 30 minutes; for K101A- or K102-induced phosphorylation of PKCμ at Ser916 or Ser744/748, PKCδ at Thr505, and Erk / phosphorylation of PKCδ at Tyr311 induced by PKC inhibitor: inhibitor pre-treatment 1 μM
Description: To assay if PKC inhibitors have any effects on the PKC activator-mediated phosphorylation of PKCs, A549 cells were pre-treated with DMSO, PKC inhibitors Go6983 (0.3 μM or 1 μM) or Sotrastaurin (0.3 μM or 1 μM) for 30 minutes before adding PKC activators K101A (1 μM) or K102 (0.1 μM) for another 30 minutes (FIG. 22). Cell lysis, protein quantitation, and Western blot analysis were performed as described above in Example 2 and 4. […] Phosphorylation of PKCα/β at Thr638/641 was not affected by the inhibitors (FIG. 22A). […] These PKC inhibitor studies indicate that blocking phosphorylation and activation of various isoforms of PKC is correlated with inhibition of the anti-proliferative effects of the PKC activators.
Cell lysis, protein quantitation, and Western blot analysis were performed as described above in Example 2 and 4. […] These PKC inhibitor studies also indicate that phosphorylation and activation of novel PKC isoforms and PKCμ is required for the anti-proliferative effects of the PKC activators whereas phosphorylation of PKCδ at Tyr311 is correlated with inhibition of the anti-proliferative effects of PKC activators.

PKCα & β = settings: cited from earlier work
Mino cells = assay: Proliferation assay, PKC inhibitors in combination with PKC activators, Mino; format: cell-based; settings: Sotrastaurin 0.3/1 μM, Go6983 0.1/1 μM, Go6976 0.3/1 μM, Enzastaurin 1/3 μM
Description: PKC inhibitor studies were performed as described in Example 8, 9, and 10. […] Thus, PKC activator-mediated anti-proliferation effects may be dependent on activation of PKC isoforms from the novel PKC class.

MiaPaCa-2 = assay: Proliferation assay, PKC inhibitor in combination with PKC activators, MiaPaCa-2; format: cell-based; settings: Sotrastaurin 1 μM with K101A or K102
PKCα, β, & γ = settings: cited from earlier work
PKCε = PKCε (Homo sapiens, UniProt Q02156); settings: cited from earlier work
PKCε, sequence (Q02156 whole entry): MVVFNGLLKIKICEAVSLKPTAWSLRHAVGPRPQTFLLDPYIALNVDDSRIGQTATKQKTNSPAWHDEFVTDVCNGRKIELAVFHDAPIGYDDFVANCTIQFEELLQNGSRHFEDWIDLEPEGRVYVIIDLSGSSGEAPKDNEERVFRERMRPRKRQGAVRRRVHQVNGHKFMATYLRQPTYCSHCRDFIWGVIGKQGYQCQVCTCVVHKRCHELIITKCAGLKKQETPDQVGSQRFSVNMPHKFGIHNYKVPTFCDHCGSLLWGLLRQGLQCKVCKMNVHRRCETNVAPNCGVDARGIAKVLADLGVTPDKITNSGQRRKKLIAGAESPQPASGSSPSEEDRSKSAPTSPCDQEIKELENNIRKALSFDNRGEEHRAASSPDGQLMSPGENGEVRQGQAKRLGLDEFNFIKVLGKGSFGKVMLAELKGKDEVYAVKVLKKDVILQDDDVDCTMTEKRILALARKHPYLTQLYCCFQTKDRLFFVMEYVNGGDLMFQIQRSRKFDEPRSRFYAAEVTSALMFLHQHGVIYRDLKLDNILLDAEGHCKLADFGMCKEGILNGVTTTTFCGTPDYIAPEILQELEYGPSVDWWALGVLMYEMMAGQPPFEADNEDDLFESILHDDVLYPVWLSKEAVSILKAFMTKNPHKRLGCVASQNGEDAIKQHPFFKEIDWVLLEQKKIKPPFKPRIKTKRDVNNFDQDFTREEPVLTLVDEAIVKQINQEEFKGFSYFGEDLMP

[3] = inhibitor pre-treatment 0.3 μM or 1 μM

Cn1c2ccccc2c2c3c(c4c5ccccc5n(CCC#N)c4c21)CNC3=O [Go6976]
effect on PKC activator-mediated proliferation inhibition (A549): minimal effects; also recorded: no inhibition
phosphorylation of PKCδ at Tyr311 induced by PKC inhibitor [1]: did not induce phosphorylation
K101A-induced phosphorylation of PKCμ at Ser916 or Ser744/748, PKCδ at Thr505, and Erk [1]: little effect
effect on PKC activator-mediated anti-proliferation effects (Namalwa cells): did not block
K101A- or K102-induced phosphorylation of PKCμ at Ser916 or Ser744/748, PKCδ at Thr505, and Erk [2]: minimal effects
phosphorylation of PKCδ at Tyr311 induced by PKC inhibitor [2]: induced no phosphorylation of PKCδ at Tyr311
Ki (PKCα & β): 2.3 to 6.2 nM
effect on PKC activator-mediated anti-proliferation effects (Mino cells): did not block

CN1CCN(c2nc(C3=C(c4c[nH]c5ccccc45)C(=O)NC3=O)c3ccccc3n2)CC1 [Sotrastaurin]
effect on PKC activator-mediated anti-proliferation effects (A549; Sotrastaurin 1 μM with K101A or K102): completely abolished
phosphorylation of PKCδ at Tyr311 induced by PKC inhibitor [1]: induced robust phosphorylation
K101A-induced phosphorylation of PKCμ at Ser916 or Ser744/748, PKCδ at Thr505, and Erk [1]: completely abolished
effect on PKC activator-mediated anti-proliferation effects (Namalwa cells): dose-dependently blocked
effect on PKC activator-mediated anti-proliferation effects (MiaPaCa-2): completely abolished
K101A- and K102-induced phosphorylation of Erk1/2 [2, 3]: blocked dose-dependently
K101A- or K102-induced phosphorylation, P-PKCμ (Ser916), P-PKCμ (Ser744/748), P-PKCδ (Thr505) [2, 3]: blocked in a dose-dependent manner
Phosphorylation of PKCα/β at Thr638/641 [2, 3]: not affected
K101A- or K102-induced phosphorylation of PKCμ at Ser916 or Ser744/748, PKCδ at Thr505, and Erk [2]: completely abolished
phosphorylation of PKCδ at Tyr311 induced by PKC inhibitor [2]: induced phosphorylation of PKCδ at Tyr311
effect on PKC activator-mediated anti-proliferation effects (Mino cells): dose-dependently blocked

CN(C)CCCn1cc(C2=C(c3c[nH]c4ccccc34)C(=O)NC2=O)c2ccccc21 [GF109203X]
effect on PKC activator-mediated proliferation inhibition (A549): minimal effects; also recorded: weak inhibition
inhibition of K101A anti-proliferative effects (A549): Slight inhibition
K101A- or K102-induced phosphorylation of PKCμ at Ser916 or Ser744/748, PKCδ at Thr505, and Erk [2]: minimal effects
phosphorylation of PKCδ at Tyr311 induced by PKC inhibitor [2]: induced phosphorylation of PKCδ at Tyr311 partially
Ki (PKCα, β, & γ): ~20 nM

Cn1cc(C2=C(c3cn(C4CCN(Cc5ccccn5)CC4)c4ccccc34)C(=O)NC2=O)c2ccccc21 [Enzastaurin]
effect on PKC activator-mediated proliferation inhibition (A549): minimal effects; also recorded: weak inhibition
inhibition of K101A anti-proliferative effects (A549): Slight inhibition
phosphorylation of PKCδ at Tyr311 induced by PKC inhibitor [1]: induced moderate phosphorylation
effect on PKC activator-mediated anti-proliferation effects (Namalwa cells): marginally blocked
Ki (PKCε): 110 nM
K101A- or K102-induced phosphorylation of PKCμ at Ser916 or Ser744/748, PKCδ at Thr505, and Erk [2]: minimal effects
phosphorylation of PKCδ at Tyr311 induced by PKC inhibitor [2]: induced phosphorylation of PKCδ at Tyr311 partially
effect on PKC activator-mediated anti-proliferation effects (Mino cells): partially blocked
